According to patent US20260263481A1, “COMPOSITION FOR TREATING OR PREVENTING KIDNEY DISEASES” (ORGANOIDSCIENCES LTD., priority 2022, published 2026):

How the values were obtained:
[1] = test system: human renal tubule cell line HK-2; assay: TUNEL assay for apoptosis in HK-2 cells; type: cell-based
Method: To evaluate the effect of PGF2α on kidney diseases, the influence of PGF2α on apoptosis in kidney cells induced by antibiotic treatment was assessed. Colistin, a type of antibiotic, is known to accumulate in proximal tubular cells and induce apoptosis by increasing the expression of the Fas death receptor or by increasing the generation of reactive oxygen species. […] After 48 hours of incubation, a TUNEL assay was conducted to assess apoptosis. Cells that tested positive in the TUNEL assay were considered apoptotic cells.
Specifically, a vehicle-treated group, a group treated with vehicle and colistin, and a group treated with bimatoprost and colistin were prepared. Apoptosis in HK-2 cells was analyzed using a TUNEL assay.

[2] = test system: human renal tubule cell line HK-2; assay: Reactive oxygen species (ROS) generation in HK-2 cells; type: cell-based
Method: After 48 hours of incubation, ROS generated in the HK-2 cells was analyzed.
Specifically, intracellular reactive oxygen species (ROS) levels were measured by fluorescence spectroscopy after treatment with bimatoprost and/or colistin. Saline containing 1% DMSO was used as a vehicle.

[3] = test system: human renal tubule cell line HK-2; assay: Cytotoxicity / cell viability assay in HK-2 cells
Method: Specifically, the human renal tubule cell line HK-2 was treated with PGF2α at a concentration of 50 μM and with colistin at 400 μg/mL. In the case of pretreatment with PGF2α, colistin was treated 24 hours after treatment with PGF2α, and the cells were cultured for 48 hours, followed by an assay to evaluate cytotoxicity. In the case of co-treatment, PGF2α and colistin were treated simultaneously, and the cells were cultured for 48 hours, followed by the assay.
Specifically, bimatoprost was treated to human renal tubule cell line HK-2 at concentrations of 0.1 μM, 0.5 μM, 1.0 μM, 5.0 μM, 10 μM, 20 μM, and 50 μM, and the vehicle-treated group was used as a control. In the case of pretreatment with bimatoprost, colistin was treated 24 hours after bimatoprost treatment, followed by incubation for 48 hours and a cytotoxicity assay. In the case of co-treatment, bimatoprost and colistin were treated simultaneously, followed by 48 hours of incubation and the cytotoxicity assay.

[4] = test system: C57BL/6N mice; assay: Colistin-induced nephrotoxicity model in mice; type: in vivo; conditions: 14 days
Method: Specifically, a colistin-induced nephrotoxicity model was established using 6-week-old C57BL/6N mice. The control group (vehicle-treated group) was prepared by intraperitoneally injecting mice with vehicle (saline containing 1% DMSO) every 12 hours for 14 days. The colistin-treated group was prepared by intraperitoneally injecting colistin at 10 mg/kg every 12 hours for 14 days. The bimatoprost-treated group was prepared by intraperitoneally injecting bimatoprost at 1 mg/kg every 12 hours for 14 days. The bimatoprost and colistin co-treatment group was prepared by intraperitoneally injecting bimatoprost at 1 mg/kg and colistin at 10 mg/kg every 12 hours for 14 days. After 14 days of administration, tissue, blood, and kidneys were collected from the mice, and key indicators of kidney disease, including kidney color, body weight, blood urea nitrogen levels, blood creatinine levels, and expression of kidney injury marker-1 (KIM-1), were analyzed.

[5] = test system: Escherichia coli; assay: Paper disk antibacterial activity on LB medium; type: cell-based; conditions: 24 hours; for growth of E. coli: substance alone on paper disk
Method: Specifically, Escherichia coli, a Gram-negative bacterium, was spread onto an LB medium, and paper disks were treated with bimatoprost and/or colistin. Saline containing 1% DMSO was used as a vehicle. After placing the paper disks onto the LB medium, incubation was carried out for 24 hours.

[6] = PGF2α 50 μM co-treated with colistin 400 μg/mL, 48 hours
[7] = bimatoprost 1 mg/kg + colistin 10 mg/kg i.p. every 12 hours
[8] = colistin 10 mg/kg i.p. every 12 hours

With `CCCCC[C@H](O)/C=C/[C@@H]1[C@@H](C/C=C\CCCC(=O)O)[C@@H](O)C[C@H]1O` [PGF2α, prostaglandin F2α] the “colistin-induced increase in apoptosis” value [1, 6] was “reduced by about half”, the “reduction of colistin-induced increase in ROS” value [2, 6] was “approximately 1.5 fold” and the ROS levels ([2]; PGF2α alone, 50 μM, 48 hours) was “decreased”.

In the case of `CCNC(=O)CCC/C=C\C[C@@H]1[C@@H](/C=C/[C@@H](O)CCc2ccccc2)[C@H](O)C[C@@H]1O` [bimatoprost], the “extent of cell death induced by colistin compared to cells not treated with bimatoprost” value ([3]; bimatoprost pretreated at 10 μM) is reported as “reduced by approximately fourfold”, the “effect on colistin-induced cell death” value ([3]; bimatoprost pretreatment 24 hours before colistin, then 48 hours) is reported as “reduced colistin-induced cell death” and the “KIM-1 area compared to the colistin-treated group” value [4, 7] is reported as “reduced by about eight times”. The “KIM-1 expression in kidney” value [4, 7] was “barely observed”, the blood creatinine levels [4, 7] was “lower than those in the colistin-treated group” and the “blood urea nitrogen levels” value [4, 7] was “lower than those in the colistin-treated group”. For the same compound, the body weight [4, 7] was “weight loss was not observed”, the kidney color [4, 7] was “recovered to a level similar to that of the vehicle-treated group” and the “inhibitory effect on E. coli growth” value ([5]; colistin and bimatoprost together on paper disk) was “at the same level as that observed in the group treated with colistin alone”. For the same compound, the “growth of E. coli” value [5] was “not inhibited”, the “number of apoptotic cells compared to the group treated with vehicle and colistin” value ([1]; bimatoprost and colistin co-treated) was “reduced by approximately threefold” and the “colistin-induced increase in ROS” value ([2]; bimatoprost and colistin, level similar to vehicle-treated group) was “reduced to approximately half”.

In the case of colistin, the “cells survived compared to those not treated with colistin” value ([3]; colistin 400 μg/mL, 48 hours) is reported as “about 50%”, the “KIM-1 expression in kidney” value [4, 8] is reported as “clearly observed” and the “blood creatinine levels relative to vehicle-treated group” value [4, 8] is reported as “approximately 1.5 times”. The “blood urea nitrogen levels relative to vehicle-treated group” value [4, 8] was “approximately 1.5 times”, the body weight [4, 8] was “reduction in body weight after day 6” and the kidney color [4, 8] was “became paler”. For the same compound, the “growth of E. coli” value [5] was “markedly suppressed”, the “increase in apoptosis compared to cells not treated with colistin” value ([1]; colistin 400 μg/mL, 48 hours) was “approximately 30%” and the “apoptotic cells (TUNEL)” value ([1]; vehicle and colistin vs vehicle-treated group (Example 2-2)) was “significant increase in apoptotic cells”. For the same compound, the “ROS levels compared to cells not treated with colistin” value ([2]; colistin 400 μg/mL, 48 hours (Example 1-3)) was “more than fivefold” and the “increase in ROS levels compared to the vehicle-treated group” value ([2]; colistin-treated group (Example 2-3), fluorescence spectroscopy) was “more than 2.5 fold”.
